Assay results published in PubChem BioAssay AID1963854 (Molecular Pharmacology Branch, DTP, NCI, 2024).

Test system: 186277-243-T-J2-PDC complex spheroid viability
Assay: Anticancer human tumor 186277-243-T-J2-PDC patient-derived colon adenocarcinoma cell line growth inhibition [POLQ]
Settings: for IC50: curve of first compound; for viability, T/C: stronger effect = lower value
Method in brief: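 PDC + HUVEC + MSC complex spheroids; POLQ inhibitors ± partner drugs; top conc. at/near clinical Cmax, else 10 microM (SN-38 1 microM), half-log dilutions; 37 degrees C, 5% CO2.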

[1] = second compound 0.0316 µM, first compound 0.0316 µM
[2] = second compound 0.0316 µM, first compound 0.1 µM
[3] = second compound 0.0316 µM, first compound 0.316 µM
[4] = second compound 0.0316 µM, first compound 1 µM
[5] = second compound 0.0316 µM, first compound 3.16 µM
[6] = second compound 0.0316 µM, first compound 10 µM
[7] = second compound 0.1 µM, first compound 0.0316 µM
[8] = second compound 0.1 µM, first compound 0.1 µM
[9] = second compound 0.1 µM, first compound 0.316 µM
[10] = second compound 0.1 µM, first compound 1 µM
[11] = second compound 0.1 µM, first compound 3.16 µM
[12] = second compound 0.1 µM, first compound 10 µM
[13] = second compound 0.316 µM, first compound 0.0316 µM
[14] = second compound 0.316 µM, first compound 0.1 µM
[15] = second compound 0.316 µM, first compound 0.316 µM
[16] = second compound 0.316 µM, first compound 1 µM
[17] = second compound 0.316 µM, first compound 3.16 µM
[18] = second compound 0.316 µM, first compound 10 µM
[19] = second compound 1 µM, first compound 0.0316 µM
[20] = second compound 1 µM, first compound 0.1 µM
[21] = second compound 1 µM, first compound 0.316 µM
[22] = second compound 1 µM, first compound 1 µM
[23] = second compound 1 µM, first compound 3.16 µM
[24] = second compound 1 µM, first compound 10 µM
[25] = second compound 3.16 µM, first compound 0.0316 µM
[26] = second compound 3.16 µM, first compound 0.1 µM
[27] = second compound 3.16 µM, first compound 0.316 µM
[28] = second compound 3.16 µM, first compound 1 µM
[29] = second compound 3.16 µM, first compound 3.16 µM
[30] = second compound 3.16 µM, first compound 10 µM
[31] = second compound 10 µM, first compound 0.0316 µM
[32] = second compound 10 µM, first compound 0.1 µM
[33] = second compound 10 µM, first compound 0.316 µM
[34] = second compound 10 µM, first compound 1 µM
[35] = second compound 10 µM, first compound 3.16 µM
[36] = second compound 10 µM, first compound 10 µM
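Also: spheroids exposed to compounds for seven days.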
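For viability, T/C in this document: 100% = DMSO vehicle control viability.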

SMILES: CC1COCCN1c1cc(-c2ccnn2C)c2ccnc(-c3ccn[nH]3)c2n1 (centres undefined) + Cc1cccc(N(C)C(=O)C2C(O)CCN2c2nc(C)cc(C(F)(F)F)c2C#N)c1
- IC50 (second compound 0.0316 µM): 41.5 nM
- IC50 (second compound 0.1 µM): 46.8 nM
- IC50 (second compound 0.316 µM): 50.4 nM
- IC50 (second compound 1 µM): 48.9 nM
- IC50 (second compound 3.16 µM): 46.8 nM
- IC50 (second compound 10 µM): 41.7 nM
- viability, T/C [1]: 61.5%
- viability, T/C [2]: 13%
- viability, T/C [3]: 5%
- viability, T/C [4]: 4.41%
- viability, T/C [5]: 4.26%
- viability, T/C [6]: 4.75%
- viability, T/C [7]: 69.2%
- viability, T/C [8]: 12.7%
- viability, T/C [9]: 5.72%
- viability, T/C [10]: 4.22%
- viability, T/C [11]: 3.97%
- viability, T/C [12]: 4.43%
- viability, T/C [13]: 74.4%
- viability, T/C [14]: 14.2%
- viability, T/C [15]: 5.49%
- viability, T/C [16]: 4.49%
- viability, T/C [17]: 3.63%
- viability, T/C [18]: 4.89%
- viability, T/C [19]: 72.3%
- viability, T/C [20]: 13.7%
- viability, T/C [21]: 6.05%
- viability, T/C [22]: 4.53%
- viability, T/C [23]: 4.55%
- viability, T/C [24]: 5.17%
- viability, T/C [25]: 68.1%
- viability, T/C [26]: 15.1%
- viability, T/C [27]: 5.47%
- viability, T/C [28]: 4.21%
- viability, T/C [29]: 4.54%
- viability, T/C [30]: 4.6%
- viability, T/C [31]: 62.2%
- viability, T/C [32]: 11.4%
- viability, T/C [33]: 4.96%
- viability, T/C [34]: 3.76%
- viability, T/C [35]: 5.16%
- viability, T/C [36]: 4.53%

SMILES: CC1COCCN1c1cc(C2(S(C)(=N)=O)CC2)nc(-c2ccnc3[nH]ccc23)n1 (centres undefined) + Cc1cccc(N(C)C(=O)C2C(O)CCN2c2nc(C)cc(C(F)(F)F)c2C#N)c1
- IC50 (second compound 0.0316 µM): 861 nM
- IC50 (second compound 0.1 µM): 800 nM
- IC50 (second compound 0.316 µM): 827 nM
- IC50 (second compound 1 µM): 842 nM
- IC50 (second compound 3.16 µM): 799 nM
- IC50 (second compound 10 µM): 784 nM
- viability, T/C [1]: 102%
- viability, T/C [2]: 102%
- viability, T/C [3]: 99%
- viability, T/C [4]: 42.6%
- viability, T/C [5]: 8.14%
- viability, T/C [6]: 6.1%
- viability, T/C [7]: 99.1%
- viability, T/C [8]: 103%
- viability, T/C [9]: 109%
- viability, T/C [10]: 37.1%
- viability, T/C [11]: 8.3%
- viability, T/C [12]: 5.32%
- viability, T/C [13]: 117%
- viability, T/C [14]: 105%
- viability, T/C [15]: 103%
- viability, T/C [16]: 39.6%
- viability, T/C [17]: 7.67%
- viability, T/C [18]: 6.8%
- viability, T/C [19]: 97%
- viability, T/C [20]: 104%
- viability, T/C [21]: 107%
- viability, T/C [22]: 40.7%
- viability, T/C [23]: 7.51%
- viability, T/C [24]: 5.6%
- viability, T/C [25]: 108%
- viability, T/C [26]: 108%
- viability, T/C [27]: 106%
- viability, T/C [28]: 35.9%
- viability, T/C [29]: 8.67%
- viability, T/C [30]: 6.42%
- viability, T/C [31]: 102%
- viability, T/C [32]: 111%
- viability, T/C [33]: 108%
- viability, T/C [34]: 34.7%
- viability, T/C [35]: 7.11%
- viability, T/C [36]: 5.36%
